Experimental data from patent US12077503B2, “Substituted cyclic amides and their use as herbicides” (FMC CORPORATION, priority 2015, dated 2024).

What was measured:
Type in all cases: in vivo
[1] = tested on: barnyardgrass (Echinochloa crus-galli); experiment: Test A preemergence; conditions: Echinochloa crus-galli, pre-emergence, 240 h, 0 to 100 scale where 0 is no effect and 100 is complete control, read-out: Barnyardgrass plant response rating
Summary of the method: (§1)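 Preemergence directed soil spray on seeded pots, or postemergence application to plants 2–10 cm, one- to two-leaf. Solvent mixture non-phytotoxic, with surfactant. Scored ~10 d later, visually, 0–100 vs untreated.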

[2] = tested on: ragweed (common ragweed, Ambrosia elatior); experiment: Test A preemergence; conditions: Ambrosia artemisiifolia, pre-emergence, 240 h, 0 to 100 scale where 0 is no effect and 100 is complete control, read-out: Ragweed plant response rating
Summary of the method: as §1

[3] = tested on: pigweed (Amaranthus retroflexus); experiment: Test A preemergence; conditions: Amaranthus retroflexus, pre-emergence, 240 h, 0 to 100 scale where 0 is no effect and 100 is complete control, read-out: Pigweed plant response rating
[4] = tested on: Kochia (Kochia scoparia); experiment: Test A preemergence; conditions: Bassia scoparia, pre-emergence, 240 h, 0 to 100 scale where 0 is no effect and 100 is complete control, read-out: Kochia plant response rating
Summary of the method: as §1

[5] = tested on: giant foxtail (Setaria faberii); experiment: Test A preemergence; conditions: Setaria faberi, pre-emergence, 240 h, 0 to 100 scale where 0 is no effect and 100 is complete control, read-out: Foxtail, Giant plant response rating
Summary of the method: as §1

[6] = tested on: ryegrass, Italian (Italian ryegrass, Lolium multiflorum); experiment: Test A preemergence; conditions: Lolium multiflorum, pre-emergence, 240 h, 0 to 100 scale where 0 is no effect and 100 is complete control, read-out: Ryegrass, Italian plant response rating
Summary of the method: as §1

[7] = tested on: rice (Oryra sativa); experiment: Test B flooded paddy test; conditions: Oryza sativa, 250 g ai/ha, Flood; 0 to 100 scale where 0 is no effect and 100 is complete control; read-out: Rice plant response rating
Summary of the method: (§2)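 2-leaf plants; pots flooded 3 cm over soil; cpd added to paddy water; depth held; greenhouse 13–15 d; visual rating vs controls, 0 = no effect, 100 = complete control.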

[8] = tested on: barnyardgrass (Echinochloa crus-galli); experiment: Test B flooded paddy test; conditions: Echinochloa crus-galli, 250 g ai/ha, Flood; 0 to 100 scale where 0 is no effect and 100 is complete control; read-out: Barnyardgrass plant response rating
Summary of the method: as §2

[9] = tested on: ducksalad (Heteranthera limosa); experiment: Test B flooded paddy test; conditions: Heteranthera limosa, 250 g ai/ha, Flood; 0 to 100 scale where 0 is no effect and 100 is complete control; read-out: Ducksalad plant response rating
Summary of the method: as §2

[10] = tested on: sedge, umbrella (small-flower umbrella sedge, Cyperus difformis); experiment: Test B flooded paddy test; conditions: Cyperus difformis, 250 g ai/ha, Flood; 0 to 100 scale where 0 is no effect and 100 is complete control; read-out: Sedge, Umbrella plant response rating
Summary of the method: as §2

[11] = tested on: barnyardgrass (Echinochloa crus-galli); experiment: Test A postemergence; conditions: Echinochloa crus-galli, post-emergence, 240 h
Summary of the method: as §1

[12] = tested on: wheat (Triticum aestivum); experiment: Test A postemergence; conditions: Triticum aestivum, post-emergence, 240 h
Summary of the method: as §1

[13] = tested on: ragweed (common ragweed, Ambrosia elatior); experiment: Test A postemergence; conditions: Ambrosia artemisiifolia, post-emergence, 240 h
Summary of the method: as §1

[14] = tested on: corn (Zea mays); experiment: Test A postemergence; conditions: Zea mays, post-emergence, 240 h
Summary of the method: as §1

[15] = tested on: blackgrass (Alopecurus myosuroides); experiment: Test A postemergence; conditions: Alopecurus myosuroides, post-emergence, 240 h
Summary of the method: as §1

[16] = tested on: Galium (catchweed bedstraw, Galium aparine); experiment: Test A postemergence; conditions: Galium, post-emergence, 240 h
Summary of the method: as §1

[17] = tested on: pigweed (Amaranthus retroflexus); experiment: Test A postemergence; conditions: Amaranthus retroflexus, post-emergence, 240 h
Summary of the method: as §1

[18] = tested on: Kochia (Kochia scoparia); experiment: Test A postemergence; conditions: Bassia scoparia, post-emergence, 240 h
Summary of the method: as §1

[19] = tested on: giant foxtail (Setaria faberii); experiment: Test A postemergence; conditions: Setaria faberi, post-emergence, 240 h
Summary of the method: as §1

[20] = tested on: ryegrass, Italian (Italian ryegrass, Lolium multiflorum); experiment: Test A postemergence; conditions: Lolium multiflorum, post-emergence, 240 h
Summary of the method: as §1

[21] = 125 g ai/ha, preemergence, approx. 10 d

Compound `Cc1ccc([C@H]2CN(C)C(=O)[C@@H]2C(=O)Nc2cc(F)c(F)c(F)c2F)cc1` [Compound 1071] has a pest or weed control at 31 g/ha ([1]; 31 g ai/ha, Preemergence) of 40%, a pest or weed control at 125 g/ha [1, 21] of 90% and a pest or weed control at 31 g/ha ([2]; 31 g ai/ha, Preemergence) of 0%. It also gave a pest or weed control at 125 g/ha [2, 21] of 0%, a pest or weed control at 31 g/ha ([3]; 31 g ai/ha, Preemergence) of 0% and a pest or weed control at 125 g/ha [3, 21] of 0%. It also gave a pest or weed control at 31 g/ha ([4]; 31 g ai/ha, Preemergence) of 0%, a pest or weed control at 125 g/ha [4, 21] of 0% and a pest or weed control at 31 g/ha ([5]; 31 g ai/ha, Preemergence) of 90%. It also gave a pest or weed control at 125 g/ha [5, 21] of 100%, a pest or weed control at 31 g/ha ([6]; 31 g ai/ha, Preemergence) of 0% and a pest or weed control at 125 g/ha [6, 21] of 0%. For the same compound, the pest or weed control at 250 g/ha [7] was 0%, the pest or weed control at 250 g/ha [8] was 40% and the pest or weed control at 250 g/ha [9] was 98%. The pest or weed control at 250 g/ha [10] was 0%, the pest or weed control at 125 g/ha ([11]; 125 g ai/ha, postemergence, visual injury on 0 to 100 scale (0 no effect, 100 complete control), approx. 10 d, read-out: Barnyardgrass plant response rating) was 90% and the pest or weed control at 31 g/ha ([11]; Postemergence, 31 g ai/ha, visual injury after approx. 10 d, 0 to 100 scale, 0 no effect, 100 complete control, read-out: Plant response rating, Barnyardgrass) was 30%. For the same compound, the plant injury at 125 g/ha ([12]; 125 g ai/ha, postemergence, visual injury on 0 to 100 scale (0 no effect, 100 complete control), approx. 10 d, read-out: Wheat plant response rating) was 0%, the plant injury at 31 g/ha ([12]; Postemergence, 31 g ai/ha, visual injury after approx. 10 d, 0 to 100 scale, 0 no effect, 100 complete control, read-out: Plant response rating, Wheat) was 0% and the pest or weed control at 125 g/ha ([13]; 125 g ai/ha, postemergence, visual injury on 0 to 100 scale (0 no effect, 100 complete control), approx. 10 d, read-out: Ragweed plant response rating) was 0%. It also gave a pest or weed control at 31 g/ha ([13]; Postemergence, 31 g ai/ha, visual injury after approx. 10 d, 0 to 100 scale, 0 no effect, 100 complete control, read-out: Plant response rating, Ragweed) of 0%, a plant injury at 125 g/ha ([14]; 125 g ai/ha, postemergence, visual injury on 0 to 100 scale (0 no effect, 100 complete control), approx. 10 d, read-out: Corn plant response rating) of 0% and a Corn plant response rating (crop injury, 0 = no effect, 100 = complete kill) at 31 g/ha ([14]; Postemergence, 31 g ai/ha, visual injury after approx. 10 d, 0 to 100 scale, 0 no effect, 100 complete control) of 0%. The pest or weed control at 125 g/ha ([15]; 125 g ai/ha, postemergence, visual injury on 0 to 100 scale (0 no effect, 100 complete control), approx. 10 d, read-out: Blackgrass plant response rating) was 0%, the pest or weed control at 31 g/ha ([15]; Postemergence, 31 g ai/ha, visual injury after approx. 10 d, 0 to 100 scale, 0 no effect, 100 complete control, read-out: Plant response rating, Blackgrass) was 0% and the pest or weed control at 125 g/ha ([16]; 125 g ai/ha, postemergence, visual injury on 0 to 100 scale (0 no effect, 100 complete control), approx. 10 d, read-out: Galium plant response rating) was 0%. The pest or weed control at 31 g/ha ([16]; Postemergence, 31 g ai/ha, visual injury after approx. 10 d, 0 to 100 scale, 0 no effect, 100 complete control, read-out: Plant response rating, Galium) was 0%, the pest or weed control at 125 g/ha ([17]; 125 g ai/ha, postemergence, visual injury on 0 to 100 scale (0 no effect, 100 complete control), approx. 10 d, read-out: Pigweed plant response rating) was 0% and the pest or weed control at 31 g/ha ([17]; Postemergence, 31 g ai/ha, visual injury after approx. 10 d, 0 to 100 scale, 0 no effect, 100 complete control, read-out: Plant response rating, Pigweed) was 0%. It also gave a pest or weed control at 125 g/ha ([18]; 125 g ai/ha, postemergence, visual injury on 0 to 100 scale (0 no effect, 100 complete control), approx. 10 d, read-out: Kochia plant response rating) of 0%, a pest or weed control at 31 g/ha ([18]; Postemergence, 31 g ai/ha, visual injury after approx. 10 d, 0 to 100 scale, 0 no effect, 100 complete control, read-out: Plant response rating, Kochia) of 0% and a pest or weed control at 125 g/ha ([19]; 125 g ai/ha, postemergence, visual injury on 0 to 100 scale (0 no effect, 100 complete control), approx. 10 d, read-out: Foxtail, Giant plant response rating) of 80%. The pest or weed control at 31 g/ha ([19]; Postemergence, 31 g ai/ha, visual injury after approx. 10 d, 0 to 100 scale, 0 no effect, 100 complete control, read-out: Plant response rating, Foxtail, Giant) was 20%, the pest or weed control at 125 g/ha ([20]; 125 g ai/ha, postemergence, visual injury on 0 to 100 scale (0 no effect, 100 complete control), approx. 10 d, read-out: Ryegrass, Italian plant response rating) was 0% and the pest or weed control at 31 g/ha ([20]; Postemergence, 31 g ai/ha, visual injury after approx. 10 d, 0 to 100 scale, 0 no effect, 100 complete control, read-out: Plant response rating, Ryegrass, Italian) was 0%.
